From patent US20120202751A1, “METHODS OF MONITORING ENDOPLASMIC RETICULUM (ER) STRESS RESPONSE” (The Board of trustees of the Leland Stanford Junior …, priority 2009, published 2012) come the findings set out here.

The test system of assay [1] is XBP1-luc activity. The experiment in a line: In vivo bioluminescence of primary tumors in Tag-Luc mice. The protocol: Mice were injected with fluorescently-labeled 2-DG or RGD peptide or dye alone and imaged 24 hours later for in vivo bioluminescence and 2-DG, RGD peptide, and dye uptake. Dark arrows indicate tumors with high in vivo bioluminescence and light arrows indicate tumors with low in vivo bioluminescence. (B) is a plot of 2-DG signal against in vivo bioluminescence for the mice imaged in FIG. 4(A). (C) is a bar graph of in vivo bioluminescence in autochthonous tumors after 24 hours of glucose deprivation. (D) Left panel: are photographs with overlays of in vivo bioluminescence of Tag-Luc mice at 0 and 12 hours after treatment with 2 mg of 2-DG or vehicle i.p. Arrows indicate palpable tumors. […]
(B) is a bar graph of in vitro XBP1-luc activity in preparations of spontaneous primary tumors from Tag and Tag-Luc mice cultured under normoxic or hypoxic conditions for 48 h. […] Bioluminescence was measured after 32 hours. […] Luciferase activity was measured after 24 hours.
In vivo bioluminescence, which corresponds to XBP1-Luc activity, was detected noninvasively using the IVIS imaging system (Caliper LifeSciences, Hopkinton, Mass.). […] Image analysis and quantification was performed using Living Image software (Caliper LifeSciences, Hopkinton, Mass.). All images were analyzed with a binning of 10. […]

A further assay concerns ATF4-Luc. The experiment in a line: ATF4-luc UPR reporter luciferase activity in HT1080 cells. It counts as cell-based, human. The following applies: for UPR reporter activity, ATF4-luc construct: luciferase activity measured after 24 hours. The protocol: (§1) FIG. 1 (A) Upper Panel: is a schematic representation of the XBP1-luc reporter construct. Lower panel: is a bar graph of in vitro luciferase activity from different reporter constructs in response to different stresses. HT 1080 cells expressing either a XBP1-luc construct, or an ATF4 or CMV-driven luciferase gene were cultured in 10 μg/ml tunicamycin, glucose depletion, or severe hypoxia (<0.02% O2) for 24 hours to induce ER stress. (B) is a graphical representation of the incidence of breast carcinomas in Tag mice and Tag-Luc double transgenic mice. […] Tumor areas are outlined. Lower panel: are overlays of in vivo bioluminescence on the pictures in the middle panel. (D) is a series of fluorescent micrographs of tissue sections from tumors from Tag-Luc and Tag mice. Frozen sections were stained with antiluciferase and anti-XBP1 (top left two panels), anti-luciferase and anti-BiP (bottom left two panels), anti-luciferase and anti-eIF2α (top right two panels), or the control secondary antibodies (bottom right two panels).
(B) is a bar graph of in vitro XBP1-luc activity in preparations of spontaneous primary tumors from Tag and Tag-Luc mice cultured under normoxic or hypoxic conditions for 48 h. (C) Left panel: are photographs with overlays of in vivo bioluminescence in Tag-Luc mice treated with vehicle or 50 mg/kg DCA (dichloroacetic acid) b.i.d. for 2 days. Bioluminescence was measured after 32 hours. Right panel: is a bar graph of in vivo bioluminescence as shown in the left panel of FIG. 5C and is the average of two experiments. (D) is a bar graph of in vitro luciferase activity in HT1080 cells containing CMV, XBP1, or ATF4-luciferase reporters after treatment with 2-DG, DCA, or glucose deprivation. Luciferase activity was measured after 24 hours.
This reporter construct was tested in vitro. The human fibrosarcoma cell line HT1080 was obtained from ATCC (Manassas, Va.). Cells were maintained at 37° C. with 5% CO2 in DMEM supplemented with 10% FBS and 1% penicillin-streptomycin antibiotics. HT1080 cells (FIG. 1A, lower panel) were stably transfected with the XBP1-Luc construct. […]

Another assay has as its system XBP1-Luc construct. Nature of the assay: XBP1-luc reporter luciferase activity in HT1080 cells. It counts as cell-based, human. The following applies: for UPR reporter activity, XBP1-luc construct: HT1080 cells, luciferase activity measured after 24 hours. On the procedure:
as §1
(B) is a bar graph of in vitro XBP1-luc activity in preparations of spontaneous primary tumors from Tag and Tag-Luc mice cultured under normoxic or hypoxic conditions for 48 h. (C) Left panel: are photographs with overlays of in vivo bioluminescence in Tag-Luc mice treated with vehicle or 50 mg/kg DCA (dichloroacetic acid) b.i.d. for 2 days. Bioluminescence was measured after 32 hours. Right panel: is a bar graph of in vivo bioluminescence as shown in the left panel of FIG. 5C and is the average of two experiments. […] Luciferase activity was measured after 24 hours.
The first 208 amino acids of the unspliced human XBP1-1 was amplified by PCR and subcloned into pEGFP-N1 (Clontech, Mountain View, Calif.). This plasmid was subsequently digested with Bam HI and Not Ito remove the EGFP and a PCR-generated firefly luciferase gene was cloned downstream of the XBP1-1 gene such that the luciferase gene was in frame only in the “spliced” reading frame. […]

The subject of assay [2] is XBP1-luc activity. The experiment in a line: In vitro luciferase activity of cultured Hi and Lo primary tumors from Tag-Luc mice. It counts as cell-based. The following applies: primary Tag-Luc tumors after 7-10 days of in vitro culture. The protocol: FIG. 3 (A) is a bar graph of in vitro luciferase activity of primary tumors from Tag-Luc mice with “Hi” or “Lo” in vivo bioluminesence or tumors from Tag mice after 7-10 days of in vitro culture. Luciferase activity was also measured following tunicamycin treatment. (B) Left panels: are photographs of Tag-Luc mice bearing tumors with synchronous Hi (dark outline in the upper panel) and Lo (light outlines) in vivo bioluminescence (overlays, lower panel). Right panels: are photographs, including bioluminescent overlay, of transplanted Hi (dark circle/arrow; upper left flank) and Lo (light circles/arrows) primary tumors from Tag-Luc mice 14 days after subcutaneously transplantation into four separate quadrants on the dorsal surface of syngeneic FVB mice. (C) is a bar graph of in vivo bioluminesence of primary and transplanted Hi and Lo tumors. Results are the average of four independent experiments.
Tumors isolated ex vivo from Tag-Luc transgenic mice had 14.5-fold greater luciferase activity than tumors isolated from control Tag transgenic mice (FIG. 2A, middle panel; p=0.0001; n=16 for Tag mice, n=33 for Tag-Luc mice). […] Luciferase activity was detected on a Monolight 2010 (Analytic Luminescence Laboratory, San Diego, Calif.).

With `O=CC[C@@H](O)[C@H](O)[C@H](O)CO` [Compound 2-DG, 2-deoxy-d-glucose], the “increase in tumor bioluminescence compared to control mice” value in the assay with XBP1-luc activity [1] (Tag-Luc mice, 2 mg 2-DG i.p., 12 hours, p=0.01) turned out to be 1.78 fold. The “UPR reporter activity, ATF4-luc construct” value in the assay on ATF4-Luc is “did induce UPR reporter activity”. Moreover, the “UPR reporter activity, XBP1-luc construct” value in the assay on XBP1-Luc construct is given as “did induce UPR reporter activity”.
Consider `O=C(O)C(Cl)Cl` [DCA, dichloroacetic acid], for which the “increase in bioluminescent signal of primary Tag-Luc tumors” value with XBP1-luc activity [1] (repeated injections, 50 mg/kg b.i.d. for 2 days, measured after 32 hours) is on record as 2.0 fold. Further, in the assay on ATF4-Luc, the “UPR reporter activity, ATF4-luc construct” value is “did not induce UPR reporter activity”. For the same compound, in the assay on XBP1-Luc construct, the “UPR reporter activity, XBP1-luc construct” value was “did not induce UPR reporter activity”.
Take tunicamycin: the “XBP1-luc activity in Hi and Lo tumors” value in the assay with XBP1-luc activity [2] is recorded as “increased”. Besides, the ATF4-Luc reporter induction result with ATF4-Luc (10 μg/ml tunicamycin, 24 hours) was “also induced”. Further, the “luciferase activity, XBP1-Luc cells” value with XBP1-Luc construct (HT1080 cells stably transfected with XBP1-Luc, 10 μg/ml tunicamycin, 24 hours, compared to CMV-Luc control cells) is “strongly induced luciferase activity”.
